Experimental findings from PubChem BioAssay (NCI) are described below.

Molecules are shown by their SMILES.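 Exposure lasted 48 hours, with cells grown in 96-well plates and compounds tested at five concentrations. TGI marks complete inhibition of growth.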

Test systems include COLO 205 colon; HOP-62 NSCLC; M14 melanoma; SF-268 CNS; U251 CNS; HL-60(TB) leukemia; OVCAR-4 ovarian; SK-OV-3 ovarian; TK-10 renal; SNB-75 CNS.
Holding throughout (assay): NCI-60 cell line screen, 48 h

For `O=c1[nH]c(=O)n(CCOc2ccccc2)cc1Nc1ccccc1`, the TGI with COLO 205 colon is above 100 µM; with HOP-62 NSCLC it was 87.4 µM; in the assay with M14 melanoma, above 100 µM; with SF-268 CNS, above 100 µM; in the assay on U251 CNS, above 100 µM.
Take `COc1cc(/C=N\N(C)C)cc(/C=N/N(C)C)c1O`: the TGI is 46.9 µM with COLO 205 colon; above 100 µM in the assay on HL-60(TB) leukemia; above 100 µM in the assay with HOP-62 NSCLC; 83.9 µM with M14 melanoma; above 100 µM with OVCAR-4 ovarian; above 100 µM with SF-268 CNS. Also, the TGI in the assay on SK-OV-3 ovarian was 55.4 µM; in the assay with TK-10 renal, above 100 µM; in the assay with U251 CNS, 74.8 µM.
Take `C[C@]12CC[C@H](OC(=O)Cc3ccc(N(CCCl)CCCl)cc3)CC1=CC[C@@H]1[C@@H]2CC[C@]2(C)C(=O)CC[C@@H]12`: the TGI with COLO 205 colon, with HL-60(TB) leukemia, with HOP-62 NSCLC, in the assay on M14 melanoma, with SF-268 CNS and in the assay with SNB-75 CNS was above 100 µM each time. For the same compound, the TGI with TK-10 renal and with U251 CNS was above 100 µM throughout.
For `O=P1(O)c2ccccc2CCc2ccccc21`, the TGI in the assay with COLO 205 colon, in the assay on HOP-62 NSCLC, in the assay on M14 melanoma, in the assay on SF-268 CNS, in the assay with SK-OV-3 ovarian and in the assay on SNB-75 CNS was above 100 µM in each case. In the assay on TK-10 renal, this compound yielded a TGI above 100 µM.
For `COc1cc(/C=C2/SC(c3ccccc3)N(c3ccccc3Cl)C2=O)cc(OC)c1OC` (stereo not drawn), the TGI in the assay on COLO 205 colon is 95.5 µM; with HL-60(TB) leukemia, above 100 µM; with HOP-62 NSCLC it was above 100 µM; in the assay on M14 melanoma, above 100 µM; in the assay with OVCAR-4 ovarian it was above 100 µM; in the assay with SF-268 CNS, above 100 µM. Moreover, the TGI with SK-OV-3 ovarian is 63.4 µM; in the assay with TK-10 renal it was above 100 µM; with U251 CNS, 67.8 µM.
As for `CC(C)(C)/C(=N\Nc1nc2ccccc2[nH]1)c1ccccn1`, the TGI in the assay with COLO 205 colon, in the assay with HOP-62 NSCLC, in the assay on M14 melanoma, in the assay on OVCAR-4 ovarian, in the assay on SF-268 CNS and with SK-OV-3 ovarian was above 100 µM each time. Further, the values for the TGI with TK-10 renal and with U251 CNS were 67.8 µM and above 100 µM, respectively.
In the case of `COc1ccc(/C=C2\CCC(C)C3C2=NN(c2ccccc2)C3c2ccc(OC)c(OC)c2)cc1OC` (stereo not drawn), the TGI was determined as 17.2 µM in the assay on COLO 205 colon; 7.07 µM in the assay on HL-60(TB) leukemia; 43.3 µM in the assay with M14 melanoma; 30.4 µM with SF-268 CNS; 20.2 µM with SK-OV-3 ovarian; 6.37 µM with SNB-75 CNS. The TGI in the assay on TK-10 renal is 6.93 µM; with U251 CNS, above 100 µM.
Turning to `O=C(O)CCCn1nnc2c(=O)[nH][nH]c(=O)c21`, the TGI in the assay with COLO 205 colon, with HL-60(TB) leukemia, in the assay on HOP-62 NSCLC, with M14 melanoma, in the assay on OVCAR-4 ovarian and in the assay with TK-10 renal was above 100 µM throughout. In the assay with U251 CNS, this compound registered a TGI above 100 µM.
Turning to `NCCCCC(NC(=O)C(N)Cc1ccc(O)cn1)C(=O)O` (stereo not drawn), the TGI with COLO 205 colon, with HL-60(TB) leukemia, in the assay with HOP-62 NSCLC, in the assay on OVCAR-4 ovarian, in the assay with SF-268 CNS and in the assay on TK-10 renal was above 100 µM each time. The TGI in the assay on U251 CNS is above 100 µM.
With `O=C(N/N=C/C=C/c1ccccc1)[C@H](O)[C@@H](O)C(=O)N/N=C/C=C/c1ccccc1`, the TGI in the assay with COLO 205 colon, with HL-60(TB) leukemia, in the assay on SF-268 CNS, with TK-10 renal and in the assay with U251 CNS was above 100 µM throughout.
For the compound `c1ccc2c(c1)CC1=C(O2)c2ccccc2OC1`, the TGI with COLO 205 colon was 38.3 µM; in the assay with HOP-62 NSCLC it was above 100 µM; in the assay with M14 melanoma it was above 100 µM; in the assay with OVCAR-4 ovarian, 88.2 µM; in the assay on SF-268 CNS, above 100 µM; in the assay on SK-OV-3 ovarian, above 100 µM. The figures for the TGI in the assay on TK-10 renal and in the assay on U251 CNS were 94.3 µM and 59.2 µM, respectively.
For `O=c1cc(N2CCNCC2)nc2ccccn12`, the TGI in the assay with COLO 205 colon, in the assay with HL-60(TB) leukemia, in the assay with HOP-62 NSCLC, in the assay with M14 melanoma, with SF-268 CNS and with SK-OV-3 ovarian was above 100 µM throughout. The TGI in the assay on SNB-75 CNS, with TK-10 renal and with U251 CNS was above 100 µM throughout.
In the case of `CCOC(=O)CCCNC(=O)CCCCC(=O)N(C)C`, the TGI in the assay on COLO 205 colon, in the assay with HL-60(TB) leukemia, in the assay on HOP-62 NSCLC, in the assay on M14 melanoma, with SF-268 CNS and in the assay on SK-OV-3 ovarian was above 100 µM throughout. The TGI in the assay with TK-10 renal and in the assay on U251 CNS was above 100 µM in each case.
Regarding `N#CC12CNCC1CN=N2` (stereo not drawn), the TGI with COLO 205 colon, in the assay on HL-60(TB) leukemia, with HOP-62 NSCLC, with OVCAR-4 ovarian, in the assay with SF-268 CNS and in the assay on SNB-75 CNS was above 100 µM in each case. Also, the TGI in the assay on TK-10 renal and in the assay with U251 CNS was above 100 µM throughout.
As to `N#CC1C(=O)N(c2ccccc2)NC12OC(=O)c1ccncc12` (stereo not drawn), the TGI in the assay on COLO 205 colon, with HL-60(TB) leukemia, with M14 melanoma, in the assay on OVCAR-4 ovarian, in the assay with SK-OV-3 ovarian and with U251 CNS was above 20 µM each time.
Take `O=C1CSSCC(=O)Nc2ccccc2N1`: the TGI in the assay with COLO 205 colon, in the assay on HL-60(TB) leukemia, in the assay with HOP-62 NSCLC, with M14 melanoma, with OVCAR-4 ovarian and with SF-268 CNS was above 100 µM each time. For the same compound, the TGI in the assay on SK-OV-3 ovarian, in the assay on TK-10 renal and in the assay on U251 CNS was above 100 µM each time.
With `CC(=O)Oc1cc(Cl)c(C)c2c1[C@H]1CC[C@]3(C)[C@@H](OC(C)=O)CC[C@H]3[C@@H]1CC2`, the TGI in the assay on HL-60(TB) leukemia, in the assay on HOP-62 NSCLC, with M14 melanoma, in the assay on SF-268 CNS, in the assay with SNB-75 CNS and with TK-10 renal was above 100 µM each time. This compound returned a TGI with U251 CNS above 100 µM.
